From patent US7767664B2, “Plant growth regulation” (Bayer CropScience AG, priority 2004, dated 2010)

Key:
[1] = tested on: maize (Zea mays, variety “LORENZO”); assay: Root growth assay, maize seed treatment; format: in vivo; settings: Root Growth of 100 is set as the standard, wet root weight 16 days post treatment
Source text: Plant roots are a highly proliferative tissue that allows an easy accessible, cheap and short term screening method for plant growth regulators. […] By using this root assay one is enabled to determine the effect of a seed treatment to root growth and/or germination and/or changes in habitat of germinated plants in order to identify the possible use as a yield enhancer. Two seeds of wheat (Triticum aestivum, variety “TRISO”) or 1 seed of maize (Zea mays, variety “LORENZO”) per hole in a plastic tray which contains an architecture of 8×13 holes were placed on compost soil covered with sand. […] Six replicates in a row of each compound and concentration were done. The outer rim of the above defined plastic tray was untreated to avoid false negative effects and the middle row (No. 7) was used as untreated control. The treated seeds were allowed to dry for approx. 4 hours and subsequently covered with sand and watered. The trays were stored in climate chambers with 14 hours lighting at a temperature of 24° C. (±2) at daytime and 16° C. (±2) at night and relative humidity (rH) of 60% and daily watered. Assessments were done 16 (±2) days post treatment by counting the germinated plants and assessing the phytotoxicity symptoms and percentage. In addition, the roots were washed out and the shoots were cut directly above the seed and the wet roots were placed on dry paper towels for approximately 30 minutes and weighted afterwards. This procedure provides a similar grade of moisture to the roots so that a comparison of the weights is possible.

[2] = tested on: wheat (Triticum aestivum, variety “TRISO”); assay: Root growth assay, wheat seed treatment; format: in vivo; settings: Root Growth of 100 is set as the standard, wet root weight 16 days post treatment
Source text: Plant roots are a highly proliferative tissue that allows an easy accessible, cheap and short term screening method for plant growth regulators. The results obtained can easily be transferred to the overall effects on a plant of plant growth regulators identified by such a system. By using this root assay one is enabled to determine the effect of a seed treatment to root growth and/or germination and/or changes in habitat of germinated plants in order to identify the possible use as a yield enhancer. Two seeds of wheat (Triticum aestivum, variety “TRISO”) or 1 seed of maize (Zea mays, variety “LORENZO”) per hole in a plastic tray which contains an architecture of 8×13 holes were placed on compost soil covered with sand. These seeds were treated with 100 μl/hole, which creates an application volume of approx. 1200 l/ha, of a compound solution at active ingredient rates equivalent to 100, 10 and 1 g a.i./ha of each compound using an robotic application system (Lizzy Spray Robotics). Six replicates in a row of each compound and concentration were done. The outer rim of the above defined plastic tray was untreated to avoid false negative effects and the middle row (No. 7) was used as untreated control. The treated seeds were allowed to dry for approx. 4 hours and subsequently covered with sand and watered. The trays were stored in climate chambers with 14 hours lighting at a temperature of 24° C. (±2) at daytime and 16° C. (±2) at night and relative humidity (rH) of 60% and daily watered. Assessments were done 16 (±2) days post treatment by counting the germinated plants and assessing the phytotoxicity symptoms and percentage. In addition, the roots were washed out and the shoots were cut directly above the seed and the wet roots were placed on dry paper towels for approximately 30 minutes and weighted afterwards. This procedure provides a similar grade of moisture to the roots so that a comparison of the weights is possible.
The effects observed concerning Root Growth given in column 2 (Root Growth of “100” is set as the standard) are directed to concentrations that are equivalent to 100, 10, 1 g a.i./ha, each.

Row | SMILES | Root Growth ([1]; 1 g a.i./ha) | Root Growth ([1]; 10 g a.i./ha) | Root Growth ([1]; 100 g a.i./ha) | Root Growth ([2]; 1 g a.i./ha) | Root Growth ([2]; 10 g a.i./ha) | Root Growth ([2]; 100 g a.i./ha)
1 | O=C1CCC(=O)c2ccccc2N1 [Compound 3.1] | 86 | 150 | 86 | 98 | 125 | 135
2 | COc1cc2c(cc1OC)C(=O)CCC(=O)N2 [Compound 3.2, 7,8-Dimethoxy-1H-benzazepine-2,5 (3H, 4H)-dione] | 96 | 89 | 123 | 133 | 131 | 98
3 | O=C1CCC(=O)c2cc(Cl)ccc2N1 [Compound 3.4] | 85 | 121 | 144 | 125 | 126 | 195
4 | O=C1CCC(=NNc2cc(Cl)cc(Cl)c2)c2cc(Br)ccc2N1 [Compound 4.1] | 131 | 102 | 136 | – | – | –
5 | CCNC(=S)NN=C1CCC(=O)Nc2cc(OC)c(OC)cc21 [Compound 4.5] | – | – | – | 149 | 106 | 79
